Assay results as given in patent US12037340B2, “Pentacyclic derivatives as Zika virus inhibitors” (Gilead Sciences, Inc., priority 2021, dated 2024).

Test system: ZIKV
Test: microbe, parasite or virus in culture
Format: cell-based, Zika virus
Settings: 48 hrs

| SMILES | EC50 |
| --- | --- |
| COC[C@H]1C[C@@H](c2nc(Cl)c(-c3ccc4c(c3)COc3cc5c(ccc6nc([C@@H]7CC[C@H](C)N7C(=O)[C@@H](NC(=O)OC)C(C)C)[nH]c65)cc3-4)[nH]2)N(C(=O)[C@@H](NC(=O)OC)C(C)(C)C(F)(F)F)C1 [Compound 20, methyl ((S)-1-((2S,5S)-2-(9-(4-chloro-2-((2S,4S)-4-(methoxymethyl)-1-((S)-4,4,4-trilluoro-2-((methoxycarbonyl)amino)-3,3-dimethylbutanoyl)pyrrolidin-2-yl)-1H-imidazol-5-yl)-1,11-dihydroisochromeno[4′,3′:6,7]naphtho[1,2-d]imidazol-2-yl)-5-methylpyrrolidin-1-yl)-3-methyl-1-oxobutan-2-yl)carbamate] | 5.4 nM |
| COC(=O)N[C@H](C(=O)N1CCC[C@H]1c1nc(Cl)c(-c2ccc3c(c2)COc2cc4c(ccc5nc([C@@H]6CCCN6C(=O)[C@@H](NC(=O)OC)C(C)(C)C(F)(F)F)[nH]c54)cc2-3)[nH]1)C(C)(C)C(F)(F)F [Compound 29, methyl ((S)-1-((S)-2-(4-chloro-5-(2-((S)-1-((S)-4,4,4-trifluoro-2-((methoxycarbonyl)amino)-3,3-dimethylbutanoyl)pyrrolidin-2-yl)-1,11-dihydroisochromeno[4′,3′:6,7]naphtho[1,2-d]imidazol-9-yl)-1H-imidazol-2-yl)pyrrolidin-l-yl)-4,4,4-trifluoro-3,3-dimethyl-1-oxobutan-2-yl)carbamate] | 11.4 nM |

Same assay, conditions: Zika virus, Huh-7; 48 hrs

| SMILES | EC50 |
| --- | --- |
| CC[C@H](C)[C@H](NC(=O)OC)C(=O)N1C[C@@H](COC)C[C@H]1c1nc(Br)c(-c2ccc3c(c2)COc2cc4c(ccc5nc([C@@H]6CC[C@H](C)N6C(=O)[C@@H](NC(=O)OC)C(C)C)[nH]c54)cc2-3)[nH]1 [Compound 17, methyl ((S)-1-((2S,5S)-2-(9-(4-bromo-2-((2S,4S)-1-((methoxycarbonyl)-L-isoleucyl)-4-(methoxymethyl)pyrrolidin-2-yl)-1H-imidazol-5-yl)-1,11-dihydroisochromeno[4′,3′:6,7]naphtho[1,2-d]imidazol-2-yl)-5-methylpyrrolidin-1-yl)-3-methyl-1-oxobutan-2-yl)carbamate] | 15.6 nM |
| CC[C@H](C)[C@H](NC(=O)OC)C(=O)N1C[C@@H](COC)C[C@H]1c1nc(C2CC2)c(-c2ccc3c(c2)COc2cc4c(ccc5nc([C@@H]6CC[C@H](C)N6C(=O)[C@@H](NC(=O)OC)C(C)C)[nH]c54)cc2-3)[nH]1 [Compound 18, methyl ((S)-1-((2S,5S)-2-(9-(4-cyclopropyl-2-((2S,4S)-1-((methoxycarbonyl)-L-isoleucyl)-4-(methoxymethyl)pyrrolidin-2-yl)-1H-imidazol-5-yl)-1,11-dihydroisochromeno[4′,3′:6,7]naphtho[1,2-d]imidazol-2-yl)-5-methylpyrrolidin-1-yl)-3-methyl-1-oxobutan-2-yl)carbamate] | 7.7 nM |
| CC[C@@H](C)[C@H](NC(=O)OC)C(=O)N1C[C@@H](COC)C[C@H]1c1nc(Cl)c(-c2ccc3c(c2)COc2cc4c(ccc5nc([C@@H]6CC[C@H](C)N6C(=O)[C@@H](NC(=O)OC)C(C)C)[nH]c54)cc2-3)[nH]1 [Compound 19, methyl ((S)-1-((2S,5S)-2-(9-(4-chloro-2-((2S,4S)-1-((methoxycarbonyl)-L-alloisoleucyl)-4-(methoxymethyl)pyrrolidin-2-yl)-1H-imidazol-5-yl)-1,11-dihydroisochromeno[4′,3′:6,7]naphtho[1,2-d]imidazol-2-yl)-5-methylpyrrolidin-1-yl)-3-methyl-1-oxobutan-2-yl)carbamate] | 16.4 nM |
| COC(=O)N[C@H](C(=O)N1[C@@H](C)CC[C@H]1c1nc(Cl)c(-c2ccc3c(c2)COc2cc4c(ccc5nc([C@@H]6CC[C@H](C)N6C(=O)[C@@H](NC(=O)OC)C(C)C)[nH]c54)cc2-3)[nH]1)C(C)C [Compound 21, methyl ((S)-1-((2S,5S)-2-(4-chloro-5-(2-((2S,5S)-1-((methoxycarbonyl)-L-valyl)-5-methylpyrrolidin-2-yl)-1,11-dihydroisochromeno[4′,3′:6,7]naphtho[1,2-d]imidazol-9-yl)-1H-imidazol-2-yl)-5-methylpyrrolidin-1-yl)-3-methyl-1-oxobutan-2-yl)carbamate] | 18.9 nM |
| CC[C@H](C)[C@H](NC(=O)OC)C(=O)N1[C@@H](C)CC[C@H]1c1nc(Cl)c(-c2ccc3c(c2)COc2cc4c(ccc5nc([C@@H]6CC[C@H](C)N6C(=O)[C@@H](NC(=O)OC)[C@@H](C)CC)[nH]c54)cc2-3)[nH]1 [Compound 22, methyl ((2S,3S)-1-((2S,5S)-2-(4-chloro-5-(2-((2S,5S)-1-((methoxycarbonyl)-L-isoleucyl)-5-methylpyrrolidin-2-yl)-1,11-dihydroisochromeno[4′,3′:6,7]naphtho[1,2-d]imidazol-9-yl)-1H-imidazol-2-yl)-5-methylpyrrolidin-1-yl)-3-methyl-1-oxopentan-2-yl)carbamate] | 10.8 nM |
| COC(=O)N[C@H](C(=O)N1[C@@H](C)CC[C@H]1c1nc(Cl)c(-c2ccc3c(c2)COc2cc4c(ccc5nc([C@@H]6CC[C@H](C)N6C(=O)[C@@H](NC(=O)OC)C(C)(C)C)[nH]c54)cc2-3)[nH]1)C(C)(C)C [Compound 23, methyl ((S)-1-((2S,5S)-2-(4-chloro-5-(2-((2S,5S)-1-((S)-2-((methoxycarbonyl)amino)-3,3-dimethylbutanoyl)-5-methylpyrrolidin-2-yl)-1,11-dihydroisochromeno[4′,3′:6,7]naphtho[1,2-d]imidazol-9-yl)-1H-imidazol-2-yl)-5-methylpyrrolidin-1-yl)-3,3-dimethyl-1-oxobutan-2-yl)carbamate] | 9.4 nM |
| COC(=O)N[C@H](C(=O)N1[C@@H](C)CC[C@H]1c1nc(Cl)c(-c2ccc3c(c2)COc2cc4c(ccc5nc([C@@H]6CC[C@H](C)N6C(=O)[C@@H](NC(=O)OC)C(C)(C)C(F)(F)F)[nH]c54)cc2-3)[nH]1)C(C)(C)C(F)(F)F [Compound 24, methyl ((S)-1-((2S,5S)-2-(4-chloro-5-(2-((2S,5S)-5-methyl-1-((S)-4,4,4-trifluoro-2-((methoxycarbonyl)amino)-3,3-dimethylbutanoyl)pyrrolidin-2-yl)-1,11-dihydroisochromeno[4′,3′:6,7]naphtho[1,2-d]imidazol-9-yl)-1H-imidazol-2-yl)-5-methylpyrrolidin-1-yl)-4,4,4-trifluoro-3,3-dimethyl-1-oxobutan-2-yl)carbamate] | 4.2 nM |
| CC[C@@H](C)[C@H](NC(=O)OC)C(=O)N1[C@@H](C)CC[C@H]1c1nc(Cl)c(-c2ccc3c(c2)COc2cc4c(ccc5nc([C@@H]6CC[C@H](C)N6C(=O)[C@@H](NC(=O)OC)[C@H](C)CC)[nH]c54)cc2-3)[nH]1 [Compound 25, methyl ((2S,3R)-1-((2S,5S)-2-(4-chloro-5-(2-((2S,5S)-1-((methoxycarbonyl)-L-alloisoleucyl)-5-methylpyrrolidin-2-yl)-1,11-dihydroisochromeno[4′,3′:6,7]naphtho[1,2-d]imidazol-9-yl)-1H-imidazol-2-yl)-5-methylpyrrolidin-1-yl)-3-methyl-1-oxopentan-2-yl)carbamate] | 8.3 nM |
| COC(=O)N[C@H](C(=O)N1CCC[C@H]1c1nc(Cl)c(-c2ccc3c(c2)COc2cc4c(ccc5nc([C@@H]6CCCN6C(=O)[C@@H](NC(=O)OC)C(C)C)[nH]c54)cc2-3)[nH]1)C(C)C [Compound 26, methyl ((S)-1-((S)-2-(4-chloro-5-(2-((S)-1-((methoxycarbonyl)-L-valyl)pyrrolidin-2-yl)-1,11-dihydroisochromeno[4′,3′:6,7]naphtho[1,2-d]imidazol-9-yl)-1H-imidazol-2-yl)pyrrolidin-1-yl)-3-methyl-1-oxobutan-2-yl)carbamate] | 85.4 nM |
| CC[C@H](C)[C@H](NC(=O)OC)C(=O)N1CCC[C@H]1c1nc(Cl)c(-c2ccc3c(c2)COc2cc4c(ccc5nc([C@@H]6CCCN6C(=O)[C@@H](NC(=O)OC)[C@@H](C)CC)[nH]c54)cc2-3)[nH]1 [Compound 27, methyl ((2S,3S)-1-((S)-2-(4-chloro-5-(2-((S)-1-((methoxycarbonyl)-L-isoleucyl)pyrrolidin-2-yl)-1,11-dihydroisochromeno[4′,3′:6,7]naphtho[1,2-d]imidazol-9-yl)-1H-imidazol-2-yl)pyrrolidin-1-yl)-3-methyl-1-oxopentan-2-yl)carbamate] | 15.3 nM |
| CC[C@@H](C)[C@H](NC(=O)OC)C(=O)N1CCC[C@H]1c1nc(Cl)c(-c2ccc3c(c2)COc2cc4c(ccc5nc([C@@H]6CCCN6C(=O)[C@@H](NC(=O)OC)[C@H](C)CC)[nH]c54)cc2-3)[nH]1 [Compound 28, methyl ((2S,3R)-1-((S)-2-(4-chloro-5-(2-((S)-1-((methoxycarbonyl)-L-alloisoleucyl)pyrrolidin-2-yl)-1,11-dihydroisochromeno[4′,3′:6,7]naphtho[1,2-d]imidazol-9-yl)-1H-imidazol-2-yl)pyrrolidin-1-yl)-3-methyl-1-oxopentan-2-yl)carbamate] | 31.5 nM |
| COC(=O)N[C@H](C(=O)N1CCC[C@H]1c1nc(Cl)c(-c2ccc3c(c2)COc2cc4c(ccc5nc([C@@H]6CCCN6C(=O)[C@@H](NC(=O)OC)C(C)(C)C)[nH]c54)cc2-3)[nH]1)C(C)(C)C [Compound 30, methyl ((S)-1-((S)-2-(4-chloro-5-(2-((S)-1-((S)-2-((methoxycarbonyl)amino)-3,3-dimethylbutanoyl)pyrrolidin-2-yl)-1,11-dihydroisochromeno[4′,3′:6,7]naphtho[1,2-d]imidazol-9-yl)-1H-imidazol-2-yl)pyrrolidin-1-yl)-3,3-dimethyl-1-oxobutan-2-yl)carbamate] | 44.7 nM |
| COC(=O)N[C@H](C(=O)N1[C@@H](C)CC[C@H]1c1nc(Br)c(-c2ccc3c(c2)COc2cc4c(ccc5nc([C@@H]6CC[C@H](C)N6C(=O)[C@@H](NC(=O)OC)C(C)C)[nH]c54)cc2-3)[nH]1)C(C)C [Compound 31, methyl ((S)-1-((2S,5S)-2-(4-bromo-5-(2-((2S,5S)-1-((methoxycarbonyl)-L-valyl)-5-methylpyrrolidin-2-yl)-1,11-dihydroisochromeno[4′,3′:6,7]naphtho[1,2-d]imidazol-9-yl)-1H-imidazol-2-yl)-5-methylpyrrolidin-1-yl)-3-methyl-1-oxobutan-2-yl)carbamate] | 8.5 nM |
